# Test results published in ChEMBL document CHEMBL5226282, “TLR2 Agonistic Small Molecules: Detailed Structure-Activity Relationship, Applications, and Future Prospects” (J Med Chem, 2021).
# Assays:
# [1] = target: Toll-like receptor 1/2 (Homo sapiens, UniProt O60603+Q15399); test: Agonist activity at TLR2/TLR1 in human THP-1 cells; format: cell-based
# [2] = target: Toll-like receptor 1/2 (Mus musculus); test: Agonist activity at TLR2/TLR1 in mouse Macrophage cell line
# Chain of Toll-like receptor 1/2 (O60603 whole entry): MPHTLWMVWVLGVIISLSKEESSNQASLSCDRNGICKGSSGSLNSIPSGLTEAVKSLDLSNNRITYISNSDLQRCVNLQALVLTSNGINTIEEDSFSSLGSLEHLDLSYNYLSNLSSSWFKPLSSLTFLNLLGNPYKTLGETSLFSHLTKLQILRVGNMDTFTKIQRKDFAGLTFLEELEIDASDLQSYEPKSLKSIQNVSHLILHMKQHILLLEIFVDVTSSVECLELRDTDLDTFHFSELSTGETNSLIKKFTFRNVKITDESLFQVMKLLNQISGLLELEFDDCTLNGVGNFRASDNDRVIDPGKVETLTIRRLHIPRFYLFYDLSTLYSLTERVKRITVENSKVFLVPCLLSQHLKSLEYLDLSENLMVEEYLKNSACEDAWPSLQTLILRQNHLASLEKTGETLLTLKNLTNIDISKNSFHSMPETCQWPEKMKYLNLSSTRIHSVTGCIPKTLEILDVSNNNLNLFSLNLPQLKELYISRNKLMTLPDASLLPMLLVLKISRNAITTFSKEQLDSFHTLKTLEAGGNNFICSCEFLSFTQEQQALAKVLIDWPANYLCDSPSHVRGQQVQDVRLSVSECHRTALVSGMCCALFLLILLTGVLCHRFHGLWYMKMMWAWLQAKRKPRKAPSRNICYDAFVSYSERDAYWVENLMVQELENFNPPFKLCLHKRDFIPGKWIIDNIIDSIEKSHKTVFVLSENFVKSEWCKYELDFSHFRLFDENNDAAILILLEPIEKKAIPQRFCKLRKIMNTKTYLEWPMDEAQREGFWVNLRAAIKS
# Chain of Toll-like receptor 1/2 (Q15399 whole entry): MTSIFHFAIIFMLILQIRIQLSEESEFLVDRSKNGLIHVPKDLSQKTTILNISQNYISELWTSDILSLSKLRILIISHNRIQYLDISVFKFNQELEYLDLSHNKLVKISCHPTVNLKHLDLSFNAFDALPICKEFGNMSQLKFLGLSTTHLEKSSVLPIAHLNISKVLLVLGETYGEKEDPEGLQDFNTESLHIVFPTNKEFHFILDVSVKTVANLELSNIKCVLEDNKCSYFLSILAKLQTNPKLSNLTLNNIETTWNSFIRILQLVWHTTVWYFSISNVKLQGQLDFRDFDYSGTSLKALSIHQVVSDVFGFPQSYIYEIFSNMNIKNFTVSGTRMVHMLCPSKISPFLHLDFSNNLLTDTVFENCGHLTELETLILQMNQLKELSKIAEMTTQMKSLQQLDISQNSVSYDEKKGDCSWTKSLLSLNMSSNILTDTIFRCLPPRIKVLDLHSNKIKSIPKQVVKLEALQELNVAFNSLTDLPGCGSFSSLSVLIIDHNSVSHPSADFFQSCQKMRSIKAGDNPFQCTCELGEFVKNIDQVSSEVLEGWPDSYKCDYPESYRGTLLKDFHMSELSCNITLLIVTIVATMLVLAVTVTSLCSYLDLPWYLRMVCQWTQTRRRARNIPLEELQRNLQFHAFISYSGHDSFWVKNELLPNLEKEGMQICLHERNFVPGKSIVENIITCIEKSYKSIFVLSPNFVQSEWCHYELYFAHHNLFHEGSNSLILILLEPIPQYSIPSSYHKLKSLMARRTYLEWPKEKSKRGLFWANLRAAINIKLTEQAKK
SMILES,EC50 [1],EC50 [2]
O=C(NCCc1ccc(F)cc1)[C@@H]1CN(C(=O)[C@H]2CC[C@H](C(=O)N3C[C@@H](C(=O)NCCc4ccc(F)cc4)[C@H](C(=O)NCCc4ccc(F)cc4)C3)CC2)C[C@H]1C(=O)NCCc1ccc(F)cc1,> 5000 nM,> 5000 nM
O=C(NCCc1ccc(F)cc1)[C@@H]1CN(C(=O)c2ccc3cc(C(=O)N4C[C@@H](C(=O)NCCc5ccc(F)cc5)[C@H](C(=O)NCCc5ccc(F)cc5)C4)ccc3c2)C[C@H]1C(=O)NCCc1ccc(F)cc1,> 5000 nM,> 5000 nM
O=C(N[C@H]1C[C@@H]1c1ccccc1)[C@@H]1CN(C(=O)c2cc(O)c(C(=O)N3C[C@@H](C(=O)N[C@H]4C[C@@H]4c4ccccc4)[C@H](C(=O)N[C@H]4C[C@@H]4c4ccccc4)C3)cc2O)C[C@H]1C(=O)N[C@H]1C[C@@H]1c1ccccc1,20 nM,> 5000 nM
O=C(NCCc1ccc(F)cc1)[C@@H]1CN(C(=O)C/C=C/CC(=O)N2C[C@@H](C(=O)NCCc3ccc(F)cc3)[C@H](C(=O)NCCc3ccc(F)cc3)C2)C[C@H]1C(=O)NCCc1ccc(F)cc1,> 5000 nM,> 5000 nM
O=C(O)[C@@H]1CN(C(=O)c2ccc(C(=O)N3C[C@@H](C(=O)O)[C@H](C(=O)N[C@@H]4C[C@H]4c4ccccc4)C3)cc2)C[C@H]1C(=O)N[C@@H]1C[C@H]1c1ccccc1,> 5000 nM,> 5000 nM
O=C(N[C@H]1C[C@@H]1c1ccccc1)[C@@H]1CN(C(=O)c2ccc(C(=O)N3C[C@@H](C(=O)N[C@H]4C[C@@H]4c4ccccc4)[C@H](C(=O)N[C@H]4C[C@@H]4c4ccccc4)C3)c(O)c2)C[C@H]1C(=O)N[C@H]1C[C@@H]1c1ccccc1,20 nM,> 5000 nM
O=C(N[C@H]1C[C@@H]1c1ccccc1)[C@@H]1CN(C(=O)C#CC(=O)N2C[C@@H](C(=O)N[C@H]3C[C@@H]3c3ccccc3)[C@H](C(=O)N[C@H]3C[C@@H]3c3ccccc3)C2)C[C@H]1C(=O)N[C@H]1C[C@@H]1c1ccccc1,> 5000 nM,> 5000 nM
CCCCCCCCCCNC(=O)[C@@H]1CN(C(=O)c2ccc(C(=O)N3C[C@@H](C(=O)NCCCCCCCCCC)[C@H](C(=O)N[C@@H]4C[C@H]4c4ccccc4)C3)cc2)C[C@H]1C(=O)N[C@@H]1C[C@H]1c1ccccc1,35 nM,1100 nM
O=C(N[C@H]1C[C@@H]1c1ccccc1)[C@@H]1CN(C(=O)c2cccc(C(=O)N3C[C@@H](C(=O)N[C@H]4C[C@@H]4c4ccccc4)[C@H](C(=O)N[C@H]4C[C@@H]4c4ccccc4)C3)c2)C[C@H]1C(=O)N[C@H]1C[C@@H]1c1ccccc1,> 5000 nM,> 5000 nM

# Stronger by EC50 [1], values ahead:
EC50 [1],EC50 [2],SMILES
17 nM,360 nM,CCCNC(=O)[C@@H]1CN(C(=O)c2ccc(C(=O)N3C[C@@H](C(=O)N[C@H]4C[C@@H]4c4ccccc4)[C@H](C(=O)N[C@@H]4C[C@H]4c4ccccc4)C3)cc2)C[C@H]1C(=O)N[C@H]1C[C@@H]1c1ccccc1
15 nM,640 nM,COC(=O)[C@@H]1CN(C(=O)c2ccc(C(=O)N3C[C@@H](C(=O)N[C@H]4C[C@@H]4c4ccccc4)[C@H](C(=O)N[C@@H]4C[C@H]4c4ccccc4)C3)cc2)C[C@H]1C(=O)N[C@H]1C[C@@H]1c1ccccc1
1 nM,1000 nM,CCCCCCCCNC(=O)[C@@H]1CN(C(=O)c2ccc(C(=O)N3C[C@@H](C(=O)N[C@H]4C[C@@H]4c4ccccc4)[C@H](C(=O)N[C@@H]4C[C@H]4c4ccccc4)C3)cc2)C[C@H]1C(=O)NCCCCCCCC
0.5 nM,2.6 nM,CCCCCCCCCCCCCCCCNC(=O)[C@@H]1CN(C(=O)c2ccc(C(=O)N3C[C@@H](C(=O)N[C@H]4C[C@@H]4c4ccccc4)[C@H](C(=O)N[C@@H]4C[C@H]4c4ccccc4)C3)cc2)C[C@H]1C(=O)N[C@H]1C[C@@H]1c1ccccc1
0.33 nM,540 nM,CCCCCCCCNC(=O)[C@@H]1CN(C(=O)c2ccc(C(=O)N3C[C@@H](C(=O)N[C@H]4C[C@@H]4c4ccccc4)[C@H](C(=O)N[C@@H]4C[C@H]4c4ccccc4)C3)cc2)C[C@H]1C(=O)N[C@H]1C[C@@H]1c1ccccc1
